Test results published in the NIST ThermoML archive (doi:10.1016/j.fluid.2016.02.035).
± gives the expanded uncertainty stated by the source.

Experiment: mn = molality of the nth substance listed, in mol/kg
Conditions: 101 kPa, Liquid; for speed of sound: Sing-around technique in a fixed-path interferometer; for mass density: Vibrating tube method

CCCC[N+](CCCC)(CCCC)CCCC.[Br-] [tetrabutylammonium bromide] + O
Conditions | mass density [kg/m3] | speed of sound [m/s]
293.15 K, m1 = 0.0015 | 998.245 ± 0.11 | 1483.3 ± 1.2
293.15 K, m1 = 0.0047 | 998.318 ± 0.11 | 1484.1 ± 1.2
293.15 K, m1 = 0.0061 | 998.352 ± 0.11 | 1484.6 ± 1.2
293.15 K, m1 = 0.013 | 998.509 ± 0.11 | 1486.1 ± 1.2
293.15 K, m1 = 0.0183 | 998.632 ± 0.11 | 1487.7 ± 1.2
293.15 K, m1 = 0.026 | 998.809 ± 0.11 | 1489.5 ± 1.2
293.15 K, m1 = 0.031 | 998.934 ± 0.11 | 1490.9 ± 1.2
293.15 K, m1 = 0.0492 | 999.359 ± 0.11 | 1495.1 ± 1.2
293.15 K, m1 = 0.0796 | 1000.08 ± 0.11 | 1502.6 ± 1.2
293.15 K, m1 = 0.0997 | 1000.55 ± 0.11 | 1507.5 ± 1.2
293.15 K, m1 = 0.1118 | 1000.85 ± 0.11 | 1510.4 ± 1.2
293.15 K, m1 = 0.1291 | 1001.26 ± 0.11 | 1514.5 ± 1.2
293.15 K, m1 = 0.1464 | 1001.68 ± 0.11 | 1518.5 ± 1.2
293.15 K, m1 = 0.1626 | 1002.06 ± 0.11 | 1522.2 ± 1.2
293.15 K, m1 = 0.1952 | 1002.85 ± 0.11 | 1529.5 ± 1.2
293.15 K, m1 = 0.2309 | 1003.71 ± 0.12 | 1537.5 ± 1.2
293.15 K, m1 = 0.2732 | 1004.73 ± 0.12 | 1546.5 ± 1.2
293.15 K, m1 = 0.3073 | 1005.55 ± 0.12 | 1553.8 ± 1.2
293.15 K, m1 = 0.3449 | 1006.43 ± 0.12 | 1561.7 ± 1.2
293.15 K, m1 = 0.5437 | 1011.1 ± 0.15 | 1599.5 ± 1.3
293.15 K, m1 = 0.7712 | 1016.12 ± 0.19 | 1636 ± 1.3
298.15 K, m1 = 0.0015 | 997.085 ± 0.11 | 1497.3 ± 1.2
298.15 K, m1 = 0.0047 | 997.156 ± 0.11 | 1498.2 ± 1.2
298.15 K, m1 = 0.0061 | 997.187 ± 0.11 | 1498.6 ± 1.2
298.15 K, m1 = 0.013 | 997.335 ± 0.11 | 1500 ± 1.2
298.15 K, m1 = 0.0183 | 997.458 ± 0.11 | 1501.4 ± 1.2
298.15 K, m1 = 0.026 | 997.626 ± 0.11 | 1503.1 ± 1.2
298.15 K, m1 = 0.031 | 997.744 ± 0.11 | 1504.3 ± 1.2
298.15 K, m1 = 0.0492 | 998.14 ± 0.11 | 1508.4 ± 1.2
298.15 K, m1 = 0.0796 | 998.844 ± 0.11 | 1515.2 ± 1.2
298.15 K, m1 = 0.0997 | 999.297 ± 0.11 | 1519.7 ± 1.2
298.15 K, m1 = 0.1118 | 999.574 ± 0.11 | 1522.4 ± 1.2
298.15 K, m1 = 0.1291 | 999.966 ± 0.11 | 1526.2 ± 1.2
298.15 K, m1 = 0.1464 | 1000.37 ± 0.11 | 1529.9 ± 1.2
298.15 K, m1 = 0.1626 | 1000.73 ± 0.11 | 1533.3 ± 1.2
298.15 K, m1 = 0.1952 | 1001.49 ± 0.11 | 1540.1 ± 1.2
298.15 K, m1 = 0.2309 | 1002.3 ± 0.12 | 1547.3 ± 1.2
298.15 K, m1 = 0.2732 | 1003.27 ± 0.12 | 1555.7 ± 1.2
298.15 K, m1 = 0.3073 | 1004.05 ± 0.12 | 1562.3 ± 1.2
298.15 K, m1 = 0.3449 | 1004.88 ± 0.12 | 1569.5 ± 1.2
298.15 K, m1 = 0.5437 | 1009.3 ± 0.15 | 1603.7 ± 1.3
298.15 K, m1 = 0.7712 | 1014.01 ± 0.19 | 1636.3 ± 1.3
303.15 K, m1 = 0.0015 | 995.686 ± 0.11 | 1509.6 ± 1.2
303.15 K, m1 = 0.0047 | 995.754 ± 0.11 | 1510.3 ± 1.2
303.15 K, m1 = 0.0061 | 995.785 ± 0.11 | 1510.7 ± 1.2
303.15 K, m1 = 0.013 | 995.926 ± 0.11 | 1512.1 ± 1.2
303.15 K, m1 = 0.0183 | 996.041 ± 0.11 | 1513.3 ± 1.2
303.15 K, m1 = 0.026 | 996.204 ± 0.11 | 1514.9 ± 1.2
303.15 K, m1 = 0.031 | 996.318 ± 0.11 | 1516.1 ± 1.2
303.15 K, m1 = 0.0492 | 996.704 ± 0.11 | 1519.8 ± 1.2
303.15 K, m1 = 0.0796 | 997.37 ± 0.11 | 1526.2 ± 1.2
303.15 K, m1 = 0.0997 | 997.802 ± 0.11 | 1530.3 ± 1.2
303.15 K, m1 = 0.1118 | 998.068 ± 0.11 | 1532.8 ± 1.2
303.15 K, m1 = 0.1291 | 998.443 ± 0.11 | 1536.2 ± 1.2
303.15 K, m1 = 0.1464 | 998.826 ± 0.11 | 1539.7 ± 1.2
303.15 K, m1 = 0.1626 | 999.177 ± 0.11 | 1542.8 ± 1.2
303.15 K, m1 = 0.1952 | 999.897 ± 0.11 | 1548.9 ± 1.2
303.15 K, m1 = 0.2309 | 1000.67 ± 0.12 | 1555.6 ± 1.2
303.15 K, m1 = 0.2732 | 1001.6 ± 0.12 | 1563.3 ± 1.2
303.15 K, m1 = 0.3073 | 1002.33 ± 0.12 | 1569.3 ± 1.2
303.15 K, m1 = 0.3449 | 1003.12 ± 0.12 | 1575.8 ± 1.2
303.15 K, m1 = 0.5437 | 1007.29 ± 0.15 | 1606.7 ± 1.3
303.15 K, m1 = 0.7712 | 1011.73 ± 0.19 | 1635.7 ± 1.3
308.15 K, m1 = 0.0015 | 994.069 ± 0.11 | 1520.2 ± 1.2
308.15 K, m1 = 0.0047 | 994.133 ± 0.11 | 1520.9 ± 1.2
308.15 K, m1 = 0.0061 | 994.141 ± 0.11 | 1521.2 ± 1.2
308.15 K, m1 = 0.013 | 994.299 ± 0.11 | 1522.5 ± 1.2
308.15 K, m1 = 0.0183 | 994.411 ± 0.11 | 1523.7 ± 1.2
308.15 K, m1 = 0.026 | 994.559 ± 0.11 | 1525.1 ± 1.2
308.15 K, m1 = 0.031 | 994.67 ± 0.11 | 1526.1 ± 1.2
308.15 K, m1 = 0.0492 | 995.05 ± 0.11 | 1529.5 ± 1.2
308.15 K, m1 = 0.0796 | 995.683 ± 0.11 | 1535.4 ± 1.2
308.15 K, m1 = 0.0997 | 996.092 ± 0.11 | 1539.2 ± 1.2
308.15 K, m1 = 0.1118 | 996.35 ± 0.11 | 1541.5 ± 1.2
308.15 K, m1 = 0.1291 | 996.709 ± 0.11 | 1544.7 ± 1.2
308.15 K, m1 = 0.1464 | 997.075 ± 0.11 | 1547.8 ± 1.2
308.15 K, m1 = 0.1626 | 997.408 ± 0.11 | 1550.7 ± 1.2
308.15 K, m1 = 0.1952 | 998.092 ± 0.11 | 1556.3 ± 1.2
308.15 K, m1 = 0.2309 | 998.837 ± 0.12 | 1562.5 ± 1.2
308.15 K, m1 = 0.2732 | 999.711 ± 0.12 | 1569.5 ± 1.2
308.15 K, m1 = 0.3073 | 1000.41 ± 0.12 | 1574.9 ± 1.2
308.15 K, m1 = 0.3449 | 1001.16 ± 0.12 | 1580.8 ± 1.2
308.15 K, m1 = 0.5437 | 1005.11 ± 0.14 | 1608.6 ± 1.3
308.15 K, m1 = 0.7712 | 1009.28 ± 0.18 | 1634.4 ± 1.3
313.15 K, m1 = 0.0015 | 992.252 ± 0.11 | 1529.2 ± 1.2
313.15 K, m1 = 0.0047 | 992.309 ± 0.11 | 1529.9 ± 1.2
313.15 K, m1 = 0.0061 | 992.322 ± 0.11 | 1530.2 ± 1.2
313.15 K, m1 = 0.013 | 992.471 ± 0.11 | 1531.4 ± 1.2
313.15 K, m1 = 0.0183 | 992.571 ± 0.11 | 1532.4 ± 1.2
313.15 K, m1 = 0.026 | 992.724 ± 0.11 | 1533.8 ± 1.2
313.15 K, m1 = 0.031 | 992.829 ± 0.11 | 1534.7 ± 1.2
313.15 K, m1 = 0.0492 | 993.186 ± 0.11 | 1537.8 ± 1.2
313.15 K, m1 = 0.0796 | 993.797 ± 0.11 | 1543.2 ± 1.2
313.15 K, m1 = 0.0997 | 994.191 ± 0.11 | 1546.6 ± 1.2
313.15 K, m1 = 0.1118 | 994.435 ± 0.11 | 1548.8 ± 1.2
313.15 K, m1 = 0.1291 | 994.777 ± 0.11 | 1551.7 ± 1.2
313.15 K, m1 = 0.1464 | 995.128 ± 0.11 | 1554.6 ± 1.2
313.15 K, m1 = 0.1626 | 995.446 ± 0.11 | 1557.2 ± 1.2
313.15 K, m1 = 0.1952 | 996.099 ± 0.11 | 1562.3 ± 1.2
313.15 K, m1 = 0.2309 | 996.807 ± 0.12 | 1567.9 ± 1.2
313.15 K, m1 = 0.2732 | 997.64 ± 0.12 | 1574.3 ± 1.2
313.15 K, m1 = 0.3073 | 998.309 ± 0.12 | 1579.2 ± 1.2
313.15 K, m1 = 0.3449 | 999.017 ± 0.12 | 1584.5 ± 1.2
313.15 K, m1 = 0.5437 | 1002.75 ± 0.14 | 1609.5 ± 1.3
313.15 K, m1 = 0.7712 | 1006.68 ± 0.18 | 1632 ± 1.3
318.15 K, m1 = 0.0015 | 990.25 ± 0.11 | 1536.8 ± 1.2
318.15 K, m1 = 0.0047 | 990.268 ± 0.11 | 1537.4 ± 1.2
318.15 K, m1 = 0.0061 | 990.285 ± 0.11 | 1537.6 ± 1.2
318.15 K, m1 = 0.013 | 990.457 ± 0.11 | 1538.7 ± 1.2
318.15 K, m1 = 0.0183 | 990.535 ± 0.11 | 1539.7 ± 1.2
318.15 K, m1 = 0.026 | 990.703 ± 0.11 | 1540.9 ± 1.2
318.15 K, m1 = 0.031 | 990.802 ± 0.11 | 1541.8 ± 1.2
318.15 K, m1 = 0.0492 | 991.142 ± 0.11 | 1544.6 ± 1.2
318.15 K, m1 = 0.0796 | 991.727 ± 0.11 | 1549.6 ± 1.2
318.15 K, m1 = 0.0997 | 992.105 ± 0.11 | 1552.7 ± 1.2
318.15 K, m1 = 0.1118 | 992.338 ± 0.11 | 1554.6 ± 1.2
318.15 K, m1 = 0.1291 | 992.665 ± 0.11 | 1557.3 ± 1.2
318.15 K, m1 = 0.1464 | 992.999 ± 0.11 | 1559.9 ± 1.2
318.15 K, m1 = 0.1626 | 993.303 ± 0.11 | 1562.3 ± 1.2
318.15 K, m1 = 0.1952 | 993.923 ± 0.11 | 1567 ± 1.2
318.15 K, m1 = 0.2309 | 994.602 ± 0.12 | 1572 ± 1.2
318.15 K, m1 = 0.2732 | 995.396 ± 0.12 | 1577.8 ± 1.2
318.15 K, m1 = 0.3073 | 996.027 ± 0.12 | 1582.3 ± 1.2
318.15 K, m1 = 0.3449 | 996.7 ± 0.12 | 1587.1 ± 1.2
318.15 K, m1 = 0.5437 | 1000.24 ± 0.14 | 1609.2 ± 1.3
318.15 K, m1 = 0.7712 | 1003.95 ± 0.18 | 1629 ± 1.3
